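Each compound was tested at five concentrations against cells in 96-well plates for 48 hours. GI50 is the concentration that inhibits growth by half.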 The source made the active and inactive calls. Rule as the data show it: active = GI50 up to about 1.1 µM and inactive = higher.
How the values were obtained:
Assay in all cases: growth of human tumour cells (NCI), 48 h
CAKI-1 = system: CAKI-1
CCRF-CEM = system: CCRF-CEM
HL-60 = system: HL-60
OVCAR-8 = system: OVCAR-8
HOP-92 = system: HOP-92
NCI-H522 = system: NCI-H522
MOLT-4 = system: MOLT-4
OVCAR-5 = system: OVCAR-5
NCI-H226 = system: NCI-H226
SW-620 = system: SW-620
KM12 = system: KM12
MCF7 = system: MCF7
A549 = system: A549
HCT-15 = system: HCT-15
SNB-75 = system: SNB-75
SF-539 = system: SF-539
SN12C = system: SN12C
NCI-H460 = system: NCI-H460
RPMI-8226 = system: RPMI-8226
SK-MEL-28 = system: SK-MEL-28
MDA-MB-231 = system: MDA-MB-231
HCC 2998 = system: HCC 2998
SK-MEL-5 = system: SK-MEL-5
MDA-MB-435 = system: MDA-MB-435
Malme-3M = system: Malme-3M
HCT-116 = system: HCT-116
NCI/ADR-RES = system: NCI/ADR-RES
U-251 = system: U-251
OVCAR-4 = system: OVCAR-4
A498 = system: A498
DU-145 = system: DU-145
SK-MEL-2 = system: SK-MEL-2
M14 = system: M14
UO-31 = system: UO-31
LOX IMVI = system: LOX IMVI
IGROV-1 = system: IGROV-1
NCI-H23 = system: NCI-H23
UACC-62 = system: UACC-62
BT-549 = system: BT-549
SR = system: SR
OVCAR-3 = system: OVCAR-3
ACHN = system: ACHN
UACC-257 = system: UACC-257
TK-10 = system: TK-10
K562 = system: K562
MDA-N = system: MDA-N
RXF 393 = system: RXF 393
COLO 205 = system: COLO 205
SNB-19 = system: SNB-19
SK-OV-3 = system: SK-OV-3
EKVX = system: EKVX
SF-295 = system: SF-295
786-0 = system: 786-0
PC-3 = system: PC-3
SF-268 = system: SF-268
HOP-62 = system: HOP-62
HT-29 = system: HT-29
Hs-578T = system: Hs-578T
T47D = system: T47D

Q: What does the source list for `CC1(C)OC(CCO)CN1C(=O)OCc1ccccc1` (stereo unspecified)?
A: GI50 (CAKI-1): > 100 µM (inactive); GI50 (CCRF-CEM): > 100 µM (inactive); GI50 (HL-60): > 100 µM (inactive); GI50 (OVCAR-8): > 100 µM (inactive); GI50 (HOP-92): > 100 µM (inactive); GI50 (NCI-H522): 74.6 µM (inactive); GI50 (MOLT-4): > 100 µM (inactive); GI50 (OVCAR-5): > 100 µM (inactive); GI50 (NCI-H226): > 100 µM (inactive); GI50 (SW-620): > 100 µM (inactive); GI50 (KM12): > 100 µM (inactive); GI50 (MCF7): > 100 µM (inactive); GI50 (A549): > 100 µM (inactive); GI50 (HCT-15): > 100 µM; GI50 (SNB-75): 92 µM (inactive); GI50 (SF-539): > 100 µM (inactive); GI50 (SN12C): > 100 µM (inactive); GI50 (NCI-H460): > 100 µM (inactive); GI50 (RPMI-8226): > 100 µM (inactive); GI50 (SK-MEL-28): > 100 µM (inactive); GI50 (MDA-MB-231): > 100 µM (inactive); GI50 (HCC 2998): > 100 µM (inactive); GI50 (SK-MEL-5): > 100 µM (inactive); GI50 (MDA-MB-435): > 100 µM (inactive); GI50 (Malme-3M): > 100 µM (inactive); GI50 (HCT-116): > 100 µM (inactive); GI50 (NCI/ADR-RES): > 100 µM (inactive); GI50 (U-251): > 100 µM (inactive); GI50 (OVCAR-4): > 100 µM (inactive); GI50 (A498): > 100 µM (inactive); GI50 (DU-145): > 100 µM (inactive); GI50 (SK-MEL-2): > 100 µM (inactive); GI50 (M14): > 100 µM (inactive); GI50 (UO-31): > 100 µM (inactive); GI50 (LOX IMVI): > 100 µM (inactive); GI50 (IGROV-1): > 100 µM (inactive); GI50 (NCI-H23): > 100 µM (inactive); GI50 (UACC-62): > 100 µM (inactive); GI50 (BT-549): 33.6 µM (inactive); GI50 (SR): > 100 µM (inactive); GI50 (OVCAR-3): > 100 µM (inactive); GI50 (ACHN): > 100 µM (inactive); GI50 (UACC-257): > 100 µM (inactive); GI50 (TK-10): > 100 µM (inactive); GI50 (K562): > 100 µM (inactive); GI50 (MDA-N): > 100 µM (inactive); GI50 (RXF 393): > 100 µM (inactive); GI50 (COLO 205): > 100 µM (inactive); GI50 (SNB-19): > 100 µM (inactive); GI50 (SK-OV-3): > 100 µM (inactive); GI50 (EKVX): > 100 µM (inactive); GI50 (SF-295): > 100 µM (inactive); GI50 (786-0): > 100 µM (inactive); GI50 (PC-3): > 100 µM (inactive)

Q: Which results are given for `O=C(CSCC(=O)N/N=C/c1cccs1)N/N=C/c1cccs1`?
A: GI50 (CAKI-1): 46.6 µM (inactive); GI50 (CCRF-CEM): 51.6 µM (inactive); GI50 (HL-60): > 100 µM (inactive); GI50 (OVCAR-8): 37 µM (inactive); GI50 (HOP-92): 27.2 µM (inactive); GI50 (NCI-H522): 38.6 µM (inactive); GI50 (MOLT-4): 64.7 µM (inactive); GI50 (OVCAR-5): > 100 µM (inactive); GI50 (NCI-H226): 37.2 µM (inactive); GI50 (SF-268): 72.9 µM (inactive); GI50 (SW-620): > 100 µM (inactive); GI50 (KM12): > 100 µM (inactive); GI50 (MCF7): > 100 µM (inactive); GI50 (A549): > 100 µM (inactive); GI50 (HCT-15): > 100 µM; GI50 (HOP-62): 46.3 µM (inactive); GI50 (SNB-75): > 100 µM (inactive); GI50 (SF-539): 52.8 µM (inactive); GI50 (SN12C): > 100 µM (inactive); GI50 (NCI-H460): > 100 µM (inactive); GI50 (RPMI-8226): 42.4 µM (inactive); GI50 (SK-MEL-28): > 100 µM (inactive); GI50 (MDA-MB-231): 75.9 µM (inactive); GI50 (HCC 2998): > 100 µM (inactive); GI50 (SK-MEL-5): 76.4 µM (inactive); GI50 (MDA-MB-435): > 100 µM (inactive); GI50 (Malme-3M): 61 µM (inactive); GI50 (HCT-116): > 100 µM (inactive); GI50 (NCI/ADR-RES): 40 µM (inactive); GI50 (U-251): > 100 µM (inactive); GI50 (OVCAR-4): 45.2 µM (inactive); GI50 (HT-29): > 100 µM (inactive); GI50 (Hs-578T): 61.1 µM (inactive); GI50 (A498): > 100 µM (inactive); GI50 (DU-145): 54.3 µM (inactive); GI50 (SK-MEL-2): 93.1 µM (inactive); GI50 (M14): > 100 µM (inactive); GI50 (UO-31): 48.3 µM (inactive); GI50 (LOX IMVI): > 100 µM (inactive); GI50 (IGROV-1): 66.7 µM (inactive); GI50 (NCI-H23): 38.8 µM (inactive); GI50 (UACC-62): > 100 µM (inactive); GI50 (BT-549): 43.2 µM (inactive); GI50 (OVCAR-3): 38.6 µM (inactive); GI50 (ACHN): 64.4 µM (inactive); GI50 (UACC-257): > 100 µM (inactive); GI50 (TK-10): > 100 µM (inactive); GI50 (K562): > 100 µM (inactive); GI50 (RXF 393): 74.3 µM (inactive); GI50 (SNB-19): 56.1 µM (inactive); GI50 (SK-OV-3): > 100 µM (inactive); GI50 (EKVX): 61.5 µM (inactive); GI50 (SF-295): 52.7 µM (inactive); GI50 (786-0): 47.6 µM (inactive); GI50 (PC-3): 30.6 µM (inactive); GI50 (T47D): > 100 µM (inactive)

Q: Which results are given for `COc1ccccc1-c1cc(O)c2c(C)cc(C)nc2n1`?
A: GI50 (CAKI-1): 40.3 µM (inactive); GI50 (CCRF-CEM): 47.9 µM (inactive); GI50 (OVCAR-8): 90.2 µM (inactive); GI50 (HOP-92): 31.8 µM (inactive); GI50 (NCI-H522): 43.7 µM (inactive); GI50 (MOLT-4): 30 µM (inactive); GI50 (OVCAR-5): > 100 µM (inactive); GI50 (NCI-H226): > 100 µM (inactive); GI50 (SF-268): 84.3 µM (inactive); GI50 (SW-620): 61.7 µM (inactive); GI50 (KM12): 29.1 µM (inactive); GI50 (MCF7): 46.8 µM (inactive); GI50 (A549): 59.7 µM (inactive); GI50 (HCT-15): 58.3 µM; GI50 (HOP-62): > 100 µM (inactive); GI50 (SF-539): > 100 µM (inactive); GI50 (SN12C): 70.1 µM (inactive); GI50 (RPMI-8226): 38.4 µM (inactive); GI50 (SK-MEL-28): > 100 µM (inactive); GI50 (MDA-MB-231): 84.3 µM (inactive); GI50 (HCC 2998): > 100 µM (inactive); GI50 (Malme-3M): 48 µM (inactive); GI50 (NCI/ADR-RES): 54.7 µM (inactive); GI50 (OVCAR-4): 56.1 µM (inactive); GI50 (HT-29): 56.8 µM (inactive); GI50 (Hs-578T): > 100 µM (inactive); GI50 (A498): 39.6 µM (inactive); GI50 (DU-145): > 100 µM (inactive); GI50 (SK-MEL-2): 45.9 µM (inactive); GI50 (M14): 79.8 µM (inactive); GI50 (UO-31): 47.1 µM (inactive); GI50 (LOX IMVI): 75.2 µM (inactive); GI50 (IGROV-1): 30.5 µM (inactive); GI50 (NCI-H23): 56.1 µM (inactive); GI50 (UACC-62): 71.9 µM (inactive); GI50 (BT-549): 96.2 µM (inactive); GI50 (ACHN): 46.3 µM (inactive); GI50 (UACC-257): 50.5 µM (inactive); GI50 (TK-10): > 100 µM (inactive); GI50 (K562): 67.9 µM (inactive); GI50 (RXF 393): 63.7 µM (inactive); GI50 (COLO 205): 36.1 µM (inactive); GI50 (SNB-19): 73.3 µM (inactive); GI50 (SK-OV-3): > 100 µM (inactive); GI50 (EKVX): 67.5 µM (inactive); GI50 (T47D): 8.13 µM (inactive)

— ChEMBL document CHEMBL1201862, “PubChem BioAssay data set” (2004)
